Source: US20180244699A1, “1-HYDROXY-3H-2,1-BENZOXABOROLE DERIVATIVES AND THEIR USE AS MICROBIOCIDES” (Syngenta Participations AG, priority 2015, published 2018)

Tested on: Pythium ultimum
Test: Pythium ultimum / liquid culture (seedling damping off)
Assay type: cell-based
Conditions: Globisporangium ultimum, growth inhibition photometrically 2-3 days after application, compared to untreated control
Procedure: 15. Pythium ultimum/Liquid Culture (Seedling Damping Off) Mycelia fragments and oospores of a newly grown liquid culture of the fungus are directly mixed into nutrient broth (PDB potato dextrose broth). After placing a (DMSO) solution of test compound into a microtiter plate (96-well format), the nutrient broth containing the fungal mycelia/spore mixture is added. The test plates are incubated at 24° C. and the inhibition of growth is determined photometrically 2-3 days after application.

Structure (SMILES)	inhibition of growth at 20 ppm
COc1n[nH]c(NC(=O)c2ccc3c(c2OC)B(O)OC3)n1 [Compound 51, 1-hydroxy-7-methoxy-N-(3-methoxy-1H-1,2,4-triazol-5-yl)-3H-2,1-benzoxaborole-6-carboxamide]	≥ 80%
COC(=O)C1CCN(C(=O)c2ccc3c(c2OC)B(O)OC3)CC1 [Compound 24, methyl 1-(1-hydroxy-7-methoxy-3H-2,1-benzoxaborole-6-carbonyl)piperidine-4-carboxylate]	≥ 80%
COc1c(C(=O)OCc2ccncc2)ccc2c1B(O)OC2 [Compound 106, 4-pyridylmethyl 1-hydroxy-7-methoxy-3H-2,1-benzoxaborole-6-carboxylate]	≥ 80%
CCOC(=O)N1CCC(NC(=O)c2ccc3c(c2OC)B(O)OC3)CC1 [Compound 18, ethyl 4-[(1-hydroxy-7-methoxy-3H-2,1-benzoxaborole-6-carbonyl)amino]piperidine-1-carboxylate]	≥ 80%
COc1c(C(=O)NCc2ncc(C(F)(F)F)cc2Cl)ccc2c1B(O)OC2 [Compound 68, N-[[3-chloro-5-(trifluoromethyl)-2-pyridyl]methyl]-1-hydroxy-7-methoxy-3H-2,1-benzoxaborole-6-carboxamide]	≥ 80%
COc1c(C(=O)NCc2ccccn2)ccc2c1B(O)OC2 [Compound 7, 1-hydroxy-7-methoxy-N-(2-pyridylmethyl)-3H-2,1-benzoxaborole-6-carboxamide]	≥ 80%
COc1c(C(=O)NC(=O)N(C)C)ccc2c1B(O)OC2 [Compound 21, N-(dimethylcarbamoyl)-1-hydroxy-7-methoxy-3H-2,1-benzoxaborole-6-carboxamide]	≥ 80%
CCC(NC(=O)c1ccc2c(c1OC)B(O)OC2)C(=O)OC (centres unmarked) [Compound 44, methyl 2-[(1-hydroxy-7-methoxy-3H-2,1-benzoxaborole-6-carbonyl)amino]butanoate]	≥ 80%
COc1c(C(=O)OCCc2ccccn2)ccc2c1B(O)OC2 [Compound 123, 2-(2-pyridyl)ethyl 1-hydroxy-7-methoxy-3H-2,1-benzoxaborole-6-carboxylate]	≥ 80%
CN(C)C(=O)c1ccc2c(c1Cl)B(O)OC2 [Compound 13, 7-chloro-1-hydroxy-N,N-dimethyl-3H-2,1-benzoxaborole-6-carboxamide]	≥ 80%
CCN(Cc1cccnc1)C(=O)c1ccc2c(c1OC)B(O)OC2 [Compound 48, N-ethyl-1-hydroxy-7-methoxy-N-(3-pyridylmethyl)-3H-2,1-benzoxaborole-6-carboxamide]	≥ 80%
CCOC(=O)C1(NC(=O)c2ccc3c(c2OC)B(O)OC3)CC1 [Compound 37, ethyl 1-[(1-hydroxy-7-methoxy-3H-2,1-benzoxaborole-6-carbonyl)amino]cyclopropanecarboxylate]	≥ 80%
COc1c(C(=O)OCn2cncn2)ccc2c1B(O)OC2 [Compound 73, 1,2,4-triazol-1-ylmethyl 1-hydroxy-7-methoxy-3H-2,1-benzoxaborole-6-carboxylate]	≥ 80%
CCSc1nc(NC(=O)c2ccc3c(c2OC)B(O)OC3)nn1C [Compound 40, N-(5-ethylsulfanyl-1-methyl-1,2,4-triazol-3-yl)-1-hydroxy-7-methoxy-3H-2,1-benzoxaborole-6-carboxamide]	≥ 80%
COc1c(C(=O)Nc2cc(C)cc(C)n2)ccc2c1B(O)OC2 [Compound 22, N-(4,6-dimethyl-2-pyridyl)-1-hydroxy-7-methoxy-3H-2,1-benzoxaborole-6-carboxamide]	≥ 80%
COc1c(C(=O)OCC(C)(F)F)ccc2c1B(O)OC2 [Compound 74, 2,2-difluoropropyl 1-hydroxy-7-methoxy-3H-2,1-benzoxaborole-6-carboxylate]	≥ 80%
CCC1COC(CNC(=O)c2ccc3c(c2OC)B(O)OC3)O1 (centres unmarked) [Compound 69, N-[(4-ethyl-1,3-dioxolan-2-yl)methyl]-1-hydroxy-7-methoxy-3H-2,1-benzoxaborole-6-carboxamide]	≥ 80%
COc1c(C(=O)OCC2COC(=O)O2)ccc2c1B(O)OC2 (centres unmarked) [Compound 113, (2-oxo-1,3-dioxolan-4-yl)methyl 1-hydroxy-7-methoxy-3H-2,1-benzoxaborole-6-carboxylate]	≥ 80%
COc1c(C(=O)OC2COCOC2)ccc2c1B(O)OC2 [Compound 122, 1,3-dioxan-5-yl 1-hydroxy-7-methoxy-3H-2,1-benzoxaborole-6-carboxylate]	≥ 80%
COc1c(C(=O)NCC(C)C)ccc2c1B(O)OC2 [Compound 36, 1-hydroxy-N-isobutyl-7-methoxy-3H-2,1-benzoxaborole-6-carboxamide]	≥ 80%
COc1c(C(=O)n2nc(N)cc2C)ccc2c1B(O)OC2 [Compound 71, (3-amino-5-methyl-pyrazol-1-yl)-(1-hydroxy-7-methoxy-3H-2,1-benzoxaborol-6-yl)methanone]	≥ 80%

Structure (SMILES)	inhibition of growth at 20 ppm
COc1cc(COC(=O)c2ccc3c(c2OC)B(O)OC3)ccc1O [Compound 126, (4-hydroxy-3-methoxy-phenyl)methyl 1-hydroxy-7-methoxy-3H-2,1-benzoxaborole-6-carboxylate]	≥ 80%
COc1c(C(=O)NCc2ccc(C)o2)ccc2c1B(O)OC2 [Compound 70, 1-hydroxy-7-methoxy-N-[(5-methyl-2-furyl)methyl]-3H-2,1-benzoxaborole-6-carboxamide]	≥ 80%
COc1cc(COC(=O)c2ccc3c(c2OC)B(O)OC3)nc(OC)n1 [Compound 78, (2,6-dimethoxypyrimidin-4-yl)methyl 1-hydroxy-7-methoxy-3H-2,1-benzoxaborole-6-carboxylate]	≥ 80%
COc1c(C(=O)NCC2CC(F)(F)C2(F)F)ccc2c1B(O)OC2 (centres unmarked) [Compound 62, 1-hydroxy-7-methoxy-N-[(2,2,3,3-tetrafluorocyclobutyl)methyl]-3H-2,1-benzoxaborole-6-carboxamide]	≥ 80%
COc1c(C(=O)OCC(C)=O)ccc2c1B(O)OC2 [Compound 76, acetonyl 1-hydroxy-7-methoxy-3H-2,1-benzoxaborole-6-carboxylate]	≥ 80%
COCCN(C)C(=O)c1ccc2c(c1OC)B(O)OC2 [Compound 27, 1-hydroxy-7-methoxy-N-(2-methoxyethyl)-N-methyl-3H-2,1-benzoxaborole-6-carboxamide]	≥ 80%
COc1c(C(=O)N2CCCC2CO)ccc2c1B(O)OC2 (centres unmarked) [Compound 72, (1-hydroxy-7-methoxy-3H-2,1-benzoxaborol-6-yl)-[2-(hydroxymethyl)pyrrolidin-1-yl]methanone]	≥ 80%
COc1c(C(=O)NCCOc2ccccc2)ccc2c1B(O)OC2 [Compound 56, 1-hydroxy-7-methoxy-N-(2-phenoxyethyl)-3H-2,1-benzoxaborole-6-carboxamide]	≥ 80%
COc1c(C(=O)OCCN(C)C(=O)OC(C)(C)C)ccc2c1B(O)OC2 [Compound 112, 2-[tert-butoxycarbonyl(methyl)amino]ethyl 1-hydroxy-7-methoxy-3H-2,1-benzoxaborole-6-carboxylate]	≥ 80%
COc1c(C(=O)Nc2c(C(C)C)ccnc2C(C)C)ccc2c1B(O)OC2 [Compound 38, N-(2,4-diisopropyl-3-pyridyl)-1-hydroxy-7-methoxy-3H-2,1-benzoxaborole-6-carboxamide]	≥ 80%
COc1c(C(=O)N(C)c2ccccn2)ccc2c1B(O)OC2 [Compound 30, 1-hydroxy-7-methoxy-N-methyl-N-(2-pyridyl)-3H-2,1-benzoxaborole-6-carboxamide]	≥ 80%
COc1c(C(=O)N(C)c2nc(C)c(S(N)(=O)=O)s2)ccc2c1B(O)OC2 [Compound 28, 1-hydroxy-7-methoxy-N-methyl-N-(4-methyl-5-sulfamoyl-thiazol-2-yl)-3H-2,1-benzoxaborole-6-carboxamide]	≥ 80%
COC(=O)C[C@H](OC(=O)c1ccc2c(c1OC)B(O)OC2)C(=O)OC [Compound 108, dimethyl (2S)-2-(1-hydroxy-7-methoxy-3H-2,1-benzoxaborole-6-carbonyl)oxybutanedioate]	≥ 80%
COc1c(C(=O)Nc2ccnc(C)c2)ccc2c1B(O)OC2 [Compound 42, 1-hydroxy-7-methoxy-N-(2-methyl-4-pyridyl)-3H-2,1-benzoxaborole-6-carboxamide]	≥ 80%
COc1c(C(=O)N(C)C)ccc2c1B(O)OC2 [Compound 11, 1-hydroxy-7-methoxy-N,N-dimethyl-3H-2,1-benzoxaborole-6-carboxamide]	≥ 80%
COc1c(C(=O)Nc2nnc(C)[nH]2)ccc2c1B(O)OC2 [Compound 43, 1-hydroxy-7-methoxy-N-(5-methyl-4H-1,2,4-triazol-3-yl)-3H-2,1-benzoxaborole-6-carboxamide]	≥ 80%
COc1c(C(=O)N(C)c2ncn[nH]2)ccc2c1B(O)OC2 [Compound 50, 1-hydroxy-7-methoxy-N-methyl-N-(1H-1,2,4-triazol-5-yl)-3H-2,1-benzoxaborole-6-carboxamide]	≥ 80%
COc1c(C(=O)NC(=S)N(C)Cc2cccnc2)ccc2c1B(O)OC2 [Compound 47, 1-hydroxy-7-methoxy-N-[methyl(3-pyridylmethyl)carbamothioyl]-3H-2,1-benzoxaborole-6-carboxamide]	≥ 80%
COC(=O)c1cc(NC(=O)c2ccc3c(c2OC)B(O)OC3)cn1C [Compound 67, methyl 4-[(1-hydroxy-7-methoxy-3H-2,1-benzoxaborole-6-carbonyl)amino]-1-methyl-pyrrole-2-carboxylate]	≥ 80%
COc1c(C(=O)NC(C)(C)C)ccc2c1B(O)OC2 [Compound 60, N-tert-butyl-1-hydroxy-7-methoxy-3H-2,1-benzoxaborole-6-carboxamide]	≥ 80%
